From ChEMBL document CHEMBL1201862, “PubChem BioAssay data set” (2004)
The source made the active and inactive calls.

How the values were obtained:
[1] = molecular target: Genome polyprotein (dengue virus type 2, UniProt P29990); assay: Dengue-2 NS5 methyltransferase inhibitors, primary screen, biochemical, confirmation dose response (AID 588689); assay type: functional
[2] = molecular target: T1, Microphthalmia-associated transcription factor (Homo sapiens, UniProt O75030); assay: TRPM1 promoter luciferase signal decrease, dose response, MITF inhibitor project, cell-based, SK-MEL-5, cherry-picked, set 3 (AID 493073); assay type: functional
T1 sequence (O75030 whole entry): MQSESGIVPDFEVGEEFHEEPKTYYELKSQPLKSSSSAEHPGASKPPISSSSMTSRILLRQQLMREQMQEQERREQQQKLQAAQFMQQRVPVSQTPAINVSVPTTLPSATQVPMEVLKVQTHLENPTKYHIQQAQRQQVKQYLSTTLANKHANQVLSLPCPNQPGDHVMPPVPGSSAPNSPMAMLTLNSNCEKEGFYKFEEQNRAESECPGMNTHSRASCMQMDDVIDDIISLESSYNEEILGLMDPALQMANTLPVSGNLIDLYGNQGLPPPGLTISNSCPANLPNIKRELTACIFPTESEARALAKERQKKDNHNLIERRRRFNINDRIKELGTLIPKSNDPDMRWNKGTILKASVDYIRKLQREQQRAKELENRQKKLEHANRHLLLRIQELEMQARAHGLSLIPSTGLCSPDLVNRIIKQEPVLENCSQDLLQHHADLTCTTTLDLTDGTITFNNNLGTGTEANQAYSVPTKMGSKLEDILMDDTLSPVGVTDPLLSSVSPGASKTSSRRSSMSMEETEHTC

[3] = system: Vero; assay: Vero cell cytotoxicity, cytotoxicity control for flavivirus capping enzyme inhibitors (AID 588742); assay type: functional; conditions: Chlorocebus sabaeus
[4] = molecular target: T2, Histone-lysine N-methyltransferase NSD2 (Homo sapiens, UniProt O96028); assay type: biochemical
T2 sequence (O96028 whole entry): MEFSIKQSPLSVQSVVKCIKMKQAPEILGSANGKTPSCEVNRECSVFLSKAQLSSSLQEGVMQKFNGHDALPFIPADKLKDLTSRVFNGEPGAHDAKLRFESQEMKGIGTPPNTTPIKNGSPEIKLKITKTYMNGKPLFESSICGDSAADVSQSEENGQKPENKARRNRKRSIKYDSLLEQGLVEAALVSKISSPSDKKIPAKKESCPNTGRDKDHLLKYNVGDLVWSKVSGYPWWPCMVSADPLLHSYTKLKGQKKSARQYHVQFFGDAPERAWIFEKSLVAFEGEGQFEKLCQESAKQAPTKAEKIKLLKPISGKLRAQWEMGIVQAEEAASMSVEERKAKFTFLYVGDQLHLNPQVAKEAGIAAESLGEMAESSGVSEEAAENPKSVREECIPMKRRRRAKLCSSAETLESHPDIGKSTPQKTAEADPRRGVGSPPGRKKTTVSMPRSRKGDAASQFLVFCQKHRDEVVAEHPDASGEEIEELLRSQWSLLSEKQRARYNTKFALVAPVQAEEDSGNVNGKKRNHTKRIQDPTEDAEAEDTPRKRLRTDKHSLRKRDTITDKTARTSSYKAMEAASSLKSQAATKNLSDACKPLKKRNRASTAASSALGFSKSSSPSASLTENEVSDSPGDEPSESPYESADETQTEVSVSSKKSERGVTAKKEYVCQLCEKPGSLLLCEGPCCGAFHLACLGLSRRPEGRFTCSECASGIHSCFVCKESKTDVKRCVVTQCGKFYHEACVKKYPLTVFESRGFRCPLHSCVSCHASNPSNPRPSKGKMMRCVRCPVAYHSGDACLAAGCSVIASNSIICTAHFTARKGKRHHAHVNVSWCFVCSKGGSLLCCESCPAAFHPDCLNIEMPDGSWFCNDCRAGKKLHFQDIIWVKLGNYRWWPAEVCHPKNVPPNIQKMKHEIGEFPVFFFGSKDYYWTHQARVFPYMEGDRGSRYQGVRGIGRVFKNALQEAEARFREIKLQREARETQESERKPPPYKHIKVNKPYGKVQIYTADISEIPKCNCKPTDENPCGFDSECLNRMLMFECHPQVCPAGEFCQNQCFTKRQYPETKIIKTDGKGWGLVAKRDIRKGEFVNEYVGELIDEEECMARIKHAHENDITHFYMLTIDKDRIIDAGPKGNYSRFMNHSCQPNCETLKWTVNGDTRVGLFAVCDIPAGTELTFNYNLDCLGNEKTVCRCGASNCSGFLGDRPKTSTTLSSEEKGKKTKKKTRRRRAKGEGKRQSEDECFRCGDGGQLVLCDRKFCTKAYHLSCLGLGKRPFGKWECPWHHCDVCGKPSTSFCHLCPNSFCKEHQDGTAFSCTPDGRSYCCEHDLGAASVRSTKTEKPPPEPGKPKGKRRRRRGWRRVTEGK

[5] = molecular target: T3, Sentrin-specific protease 8 (Homo sapiens, UniProt Q96LD8); assay type: functional
T3 sequence (Q96LD8 whole entry): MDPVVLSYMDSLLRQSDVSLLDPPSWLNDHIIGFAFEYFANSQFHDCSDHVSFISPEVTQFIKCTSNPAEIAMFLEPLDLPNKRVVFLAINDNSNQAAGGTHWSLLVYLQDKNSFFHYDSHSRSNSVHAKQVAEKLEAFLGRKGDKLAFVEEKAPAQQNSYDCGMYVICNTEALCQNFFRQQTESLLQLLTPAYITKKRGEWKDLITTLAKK

[6] = molecular target: T3, Sentrin-specific protease 8; assay type: functional; remark: listed apart in the source
[7] = molecular target: Acetyl-CoA acetyltransferase/HMG-CoA reductase (Enterococcus faecalis, UniProt Q9FD70); assay: inhibitors of E. faecalis class II HMGR, confirmation, biochemical, Enterococcus faecalis (AID 1233); assay type: functional
[8] = molecular target: T4, Endoribonuclease toxin MazF (Escherichia coli K-12, UniProt P0AE70); assay: fluorescent RNA oligo signal without MazF, dose response, counter-screen for MazEF activator project, biochemical, fluorescence, single-stranded RNase substrate (AID 588502); assay type: functional
T4 sequence (P0AE70 whole entry): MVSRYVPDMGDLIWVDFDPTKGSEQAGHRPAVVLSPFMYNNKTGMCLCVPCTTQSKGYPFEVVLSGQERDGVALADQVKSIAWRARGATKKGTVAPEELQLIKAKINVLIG

[9] = molecular target: T5, Tyrosyl-DNA phosphodiesterase 2 (Homo sapiens, UniProt O95551); assay: human TDP2 enzyme inhibitors, dose response, biochemical, epi absorbance, IC50 (AID 743297)
T5 sequence (O95551 whole entry): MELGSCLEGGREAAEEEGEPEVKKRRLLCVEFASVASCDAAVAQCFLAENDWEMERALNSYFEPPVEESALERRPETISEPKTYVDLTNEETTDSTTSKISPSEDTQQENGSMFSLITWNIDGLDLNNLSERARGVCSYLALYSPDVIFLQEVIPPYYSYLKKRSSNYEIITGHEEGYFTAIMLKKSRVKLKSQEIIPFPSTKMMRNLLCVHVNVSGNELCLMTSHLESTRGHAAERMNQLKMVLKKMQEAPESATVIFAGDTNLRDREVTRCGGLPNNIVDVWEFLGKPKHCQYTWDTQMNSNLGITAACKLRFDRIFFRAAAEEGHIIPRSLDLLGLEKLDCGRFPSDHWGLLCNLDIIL

Chain of Genome polyprotein (P29990 2492-3391 limits assumed): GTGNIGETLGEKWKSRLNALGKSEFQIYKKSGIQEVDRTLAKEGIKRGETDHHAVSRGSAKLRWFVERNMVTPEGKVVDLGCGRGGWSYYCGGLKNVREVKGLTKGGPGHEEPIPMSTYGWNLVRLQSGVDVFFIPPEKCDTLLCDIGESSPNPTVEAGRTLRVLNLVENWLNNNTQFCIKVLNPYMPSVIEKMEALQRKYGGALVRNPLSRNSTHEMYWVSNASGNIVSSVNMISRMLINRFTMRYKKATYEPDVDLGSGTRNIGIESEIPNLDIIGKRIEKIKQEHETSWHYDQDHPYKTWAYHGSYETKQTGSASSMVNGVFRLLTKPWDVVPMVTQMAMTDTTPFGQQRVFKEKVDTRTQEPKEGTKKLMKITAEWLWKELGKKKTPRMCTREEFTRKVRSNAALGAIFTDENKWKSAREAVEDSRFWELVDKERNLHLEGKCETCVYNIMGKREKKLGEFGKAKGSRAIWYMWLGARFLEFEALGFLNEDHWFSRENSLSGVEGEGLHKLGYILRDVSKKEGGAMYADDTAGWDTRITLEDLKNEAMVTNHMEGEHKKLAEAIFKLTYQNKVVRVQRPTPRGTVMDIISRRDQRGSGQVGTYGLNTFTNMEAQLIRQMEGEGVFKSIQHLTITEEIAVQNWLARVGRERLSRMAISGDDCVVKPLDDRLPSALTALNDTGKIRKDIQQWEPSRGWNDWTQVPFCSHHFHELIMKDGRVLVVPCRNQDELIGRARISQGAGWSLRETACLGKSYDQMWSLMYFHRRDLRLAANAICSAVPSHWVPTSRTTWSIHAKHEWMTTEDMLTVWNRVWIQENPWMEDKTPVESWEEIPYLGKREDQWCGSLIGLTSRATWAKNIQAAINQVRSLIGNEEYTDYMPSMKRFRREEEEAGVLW

Compound	IC50 [1]	AC50 [2]	CC50 [3]	AC50 [4]	IC50 [5]	IC50 [6]	IC50 [7]	EC50 [8]	IC50 [9]
Cc1cccc(NC2=C(NC(=O)c3ccccc3)C(=O)c3ccccc3C2=O)c1	58.4 µM (active)	9.99 µM (active)	> 40 µM (active)	–	–	–	–	–	–
Cc1[nH][nH]c(=O)c1C(c1c(C)[nH][nH]c1=O)c1cn(Cc2ccccc2Cl)c2ccccc12	–	–	–	17.8 µM (active)	4.89 µM (active)	4.8 µM (active)	91 µM (active)	> 99 µM (inactive)	54.2 µM (inactive)
CC(C)=CCC1=C(OCC(=O)O)C(=O)c2ccccc2C1=O	–	–	–	3.99 µM (active)	–	–	–	–	23.6 µM (inactive)
